Data: paper PMC5462101 (Future medicinal chemistry, 2015)

Key:
soybean lipoxygenase = molecular target: T1, soybean lipoxygenase (Glycine max, UniProt P08170); experiment: Inhibition of soybean lipoxygenase; assay type: biochemical; conditions: for inhibition at 100 µM: compound at 100 µM, read-out: Lipoxygenase inhibitory activity (% at 100 µM); for IC50: sodium linoleate 0.1 mM, read-out: Lipoxygenase inhibitory activity (IC50)
T1 construct: purchased Sigma
T1 sequence (P08170 1-839): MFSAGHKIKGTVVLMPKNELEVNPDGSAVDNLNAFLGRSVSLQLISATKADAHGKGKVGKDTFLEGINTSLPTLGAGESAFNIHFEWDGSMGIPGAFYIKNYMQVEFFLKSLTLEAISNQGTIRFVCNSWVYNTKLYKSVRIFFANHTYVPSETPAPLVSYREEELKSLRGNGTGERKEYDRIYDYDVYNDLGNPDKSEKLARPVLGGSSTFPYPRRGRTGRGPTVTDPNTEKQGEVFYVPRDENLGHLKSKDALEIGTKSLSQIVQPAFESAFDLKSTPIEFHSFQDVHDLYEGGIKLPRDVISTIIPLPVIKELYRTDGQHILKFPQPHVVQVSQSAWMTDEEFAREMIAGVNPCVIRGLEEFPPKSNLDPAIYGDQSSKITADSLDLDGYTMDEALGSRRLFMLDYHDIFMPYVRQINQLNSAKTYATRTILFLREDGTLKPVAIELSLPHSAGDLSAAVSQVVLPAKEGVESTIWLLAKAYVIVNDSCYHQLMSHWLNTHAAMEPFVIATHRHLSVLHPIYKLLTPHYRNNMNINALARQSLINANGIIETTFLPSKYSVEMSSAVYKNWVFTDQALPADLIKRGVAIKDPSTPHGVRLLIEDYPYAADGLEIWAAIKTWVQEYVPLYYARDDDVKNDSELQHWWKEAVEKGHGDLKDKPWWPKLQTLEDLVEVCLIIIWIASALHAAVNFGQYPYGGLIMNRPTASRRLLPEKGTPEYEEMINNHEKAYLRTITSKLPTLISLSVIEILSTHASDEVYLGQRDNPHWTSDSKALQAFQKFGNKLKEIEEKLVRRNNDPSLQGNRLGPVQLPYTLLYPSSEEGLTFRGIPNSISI
Description: The substituted pteridines prepared were assayed for inhibition of soybean lipoxygenase (Table 1) (Supplementary Information). Many studies have used readily obtainable soybean lipoxygenase, which is a homologue of mammalian lipoxygenase and well examined. The availability of soybean LOX and its well-characterized crystal structure led to its use in this study.
Determination of soybean lipoxygenase inhibition
A solution in DMSO of each compound to be tested was incubated at room temperature with sodium linoleate (0.1 mM) and a solution of soybean lipoxygenase (EC 1.13.11.12) (1:9 x 10^4 w/v in saline, 0.2 mL, Sigma). The conversion of sodium linoleate to 13-hydroperoxylinoleic acid was monitored by observation at 234 nm and compared with the value of appropriate standard inhibitor (Table 1).
(§1) IC50 determinations. OriginPro 8 was used to determine IC50 values from the sigmoidal line fitted to a graph of log[concentration] against the average percentage inhibition from two independent experiments, with at least 6 different concentrations. The SEM is the calculated standard error in the IC50 value of the fitted line.

[1] = Reducing ability in DPPH assay; conditions: compound 100 μM
Description: Previous work has shown that pterins, their dihydro- and their tetrahydro-derivatives can each be antioxidants or pro-oxidants, depending on the particular conditions. In the present study, several assays were used to assess in vitro antioxidant activity in order to obtain representative information; each method involves the generation of a different radical.
Determination of reducing activity using 1,1-diphenyl-2-picrylhydrazyl radical (DPPH)
To a solution of DPPH in absolute ethanol was added an equal volume of the compound to be tested dissolved in DMSO (20 µL). From a stock solution (10 mM) was prepared a final solution of 100 µM for evaluation of the compounds. The absorbance at 517 nm was recorded after 20 and 60 min at room temperature (Table 2).

[2] = Competition with DMSO for hydroxyl radicals; conditions: compound at 100 µM, Fe3+/ascorbic acid, DMSO 33 mM
Description: Competition of the novel pteridine derivatives with dimethyl sulfoxide for hydroxyl radicals was measured. […] The majority of the derivatives were excellent scavengers of hydroxyl radicals with activity higher than the reference compound 6-hydroxy-2,5,7,8-tetramethylchroman-2-carboxylic acid (Trolox).
Competition of pteridine derivatives with DMSO for hydroxyl radicals
Hydroxyl radicals generated by the Fe^3+/ascorbic acid system were detected by determination of formaldehyde produced from the oxidation of DMSO, according to the procedure of Nash. The reaction mixture comprised ethylenediaminetetracetic acid (EDTA) (0.1 mM), Fe^3+ (167 μM), DMSO (33 mM) in phosphate buffer (50 mM, pH 7.4), ascorbic acid (10 mM) and the compound to be tested at 100 µM. After incubation at 37 °C for 30 min the mixture was quenched with aqueous trichloroacetic acid (17% w/v) (Table 2) and the percentage competition of the tested compounds with DMSO for hydroxyl radicals was determined (Table 2).

[3] = Inhibition of linoleic acid peroxidation (AAPH); conditions: linoleic acid peroxidation initiated by AAPH, 37 °C, pH 7.4
From the text: Azo compounds that generate free radicals through spontaneous thermal decomposition are useful for in vitro studies of free radical production. The water-soluble AAPH has been extensively used as a clean and controllable source of thermally produced alkylperoxyl free radicals. […] Evidently, the presence of 6,7-dimethyl groups on the pteridine ring greatly enhances protection against lipid peroxidation; the nature of the alkyl group and ring size on the 2-substituent has some, but much less, effect. […] The role of lipophilicity (as assessed from calculated clogP values; Table 1) is not clear, but substituent bulk plays a significant role.
Inhibition of linoleic acid peroxidation
Production of conjugated diene hydroperoxide by oxidation of linoleic acid in an aqueous dispersion was monitored at 234 nm. 2,2’-Azobis(2-amidinopropane) dihydrochloride (AAPH) was used as a free radical initiator. This assay was used to follow oxidative changes and to determine the inhibition of the peroxidation of sodium linoleate by each tested compound. A dispersion of sodium linoleate (16 mM, 10 μL) was added to the UV cuvette containing phosphate buffer (0.05 M, 0.93 mL) at pH 7.4 and kept in a thermostat at 37 °C. The oxidation reaction was initiated at 37 °C under air by the addition of AAPH solution (40 mM, 50 μL). Oxidation was carried out in the presence of aliquots (10 μL) of the tested compound. In the assay without antioxidant, lipid oxidation was measured in the presence of DMSO (10 μL). The rate of oxidation at 37 °C was monitored by recording the increase in absorption at 234 nm caused by conjugated diene hydroperoxide formation (Table 2).
as §1

rat model of colitis = experiment: Acetic acid-induced colitis in the rat; assay type: in vivo, Fisher 344 rats; conditions: 0.01 mmol/kg intrarectally, 4% acetic acid, assessed after 48 h
Description: LOX has also been associated with inflammation and ulcerative colitis. In the present study, a model for colitis involving intracolonic administration of aqueous 4% acetic acid in the rat was used, leading to acute inflammatory reaction. Treated rats presented partial to diffuse petechial bleeding, single erosion and limited ulceration indicating an overall healing effect of the compounds. Substituted pteridines presenting a satisfactory combination of activities 5a, 18a, 18d and 18f were tested using this in vivo model characterized by diffuse exfoliated mucosa as well as multiple and extended erosion and ulcers of the colon (Table 3). No mortality was encountered.
Fisher 344 rats (150-200 g) were housed in wire-mesh cages, given standard laboratory chow and tap water ad libitum and acclimatized for one week before experiments. Rats were randomly assigned to experimental groups. All in vivo experiments conform to the law for the protection of experimental animals (Republic of Greece) and are registered at the Veterinary Administration of the Republic of Greece in accordance with recognized guidelines on animal experimentation including Directive 2010/63/EU.
Induction of colitis
Rats were anesthetized using pentobarbital (50 mg/kg ip) prior to administration with 1 mL of either vehicle (0.9% w/v saline) or the compound under study at doses 0.01mmol/kg intrarectally via a polyethylene cannula (fitted to a 1 mL syringe) with the tip inserted approximately 8 cm into the anus. Following 30 min pretreatment, 1 ml of 4% acetic acid was introduced into the colon intrarectally and, after exposure for 60 s, the excess fluid was withdrawn. The luminal content was then expelled by instillation of air (10 mL), the ligature was removed and the abdomen was sutured. Both groups of rats were allowed to recover with food and water and the resulting injury was assessed after 48 h. The experiment was conducted using two groups, each containing 3 animals.
Assessment of colonic damage. Rats were weighed, inspected for the presence of diarrhea and sacrificed using diethyl ether. The colons were excised and opened longitudinally, rinsed with cold saline, pinned out and observed under a dissecting microscope. Colonic damage was scored using the system of MacPherson and Pfeiffer: 0 – normal appearance, 1- hyperaemia, 2 – patchy petechial bleeding, 3 – diffuse petechial bleeding, 4 – partial exfoliated mucosa or single erosion or ulceration, 5 – diffuse exfoliated mucosa or multiple erosions or ulceration. The presence or absence of adhesions between the colon and the surrounding tissues was recorded. Scoring of the colonic damage (Table 4) was carried out by an observer unaware of the treatment.

Structure (SMILES) | inhibition at 100 µM (soybean lipoxygenase) [%] | IC50 [3] [µM] | IC50 (soybean lipoxygenase) [µM] | melting point [°C] | IC50 ([3]; listed as 24) [µM] | RA (%) 100μM 20 min [1] [%] | RA (%) 100μM 60 min [1] [%] | Hydroxyl radicals scavenged (%) [2] [%] | Change in body weight (%) (rat model of colitis)
CN1CCN(c2nc(N)c3nccnc3n2)CC1 [Compound 5a, 2-(4-methylpiperazin-1-yl) pteridin-4-amine] | 37.5 ± 0.1 | 41 ± 1.1 | – | – | – | 15 | 14 | 98 | -1.1
CCN1CCNc2nc(N3CCN(C)CC3)nc(N3CCN(C)CC3)c21 [Compound 10a] | – | 15 ± 0.2 | 5 ± 0.1 | 139 to 140 | – | 79 | 81 | 96 | –
CCN1CCN(CC)c2c1nc(N1CCN(C)CC1)nc2N1CCN(C)CC1 [Compound 10b] | – | 10 ± 0.43 | 55 ± 0.2 | – | – | 98 | 97 | 98 | –
OC1CCCN(c2nc(N3CCCC(O)C3)c3nccnc3n2)C1 (centres unmarked) [Compound 13] | – | 0.33 ± 0.01 | 60 ± 0.3 | – | – | 6 | 13 | 95 | –
CCN1CCN(c2nc(NCc3cccs3)c3nccnc3n2)CC1 [Compound 20a] | – | 20 ± 0.5 | 43 ± 0.7 | 148 to 149 | – | 4 | 11 | 92 | –
CN1CCCN(c2nc(NCc3cccs3)c3nccnc3n2)CC1 [Compound 20b] | – | 41 ± 0.3 | 62.5 ± 0.5 | 130 to 131 | – | 15 | 19 | 94 | –
CC(Cc1ccc(O)c(O)c1)C(C)Cc1ccc(O)c(O)c1 (centres unmarked) [NDGA, Nordihydroguaiaretic acid, reference compound] | – | – | – | – | – | 81 | 83 | – | –
Cc1c(C)c2c(c(C)c1O)CCC(C)(C(=O)O)O2 (centres unmarked) [Trolox, 6-hydroxy-2,5,7,8-tetramethylchroman-2-carboxylic acid, reference compound] | – | 55.5 | – | – | – | – | – | 73 | –

Further lines, with some results ahead:

inhibition at 100 µM (soybean lipoxygenase) [%] | IC50 [3] [µM] | IC50 (soybean lipoxygenase) [µM] | melting point [°C] | IC50 ([3]; listed as 24) [µM] | Structure (SMILES) | RA (%) 100μM 20 min [1] [%] | RA (%) 100μM 60 min [1] [%] | Hydroxyl radicals scavenged (%) [2] [%] | Change in body weight (%) (rat model of colitis)
– | 40 ± 0.8 | 100 ± 0.3 | – | – | Cc1nc2nc(N3CCN(C)CC3)nc(N)c2nc1C [Compound 5b] | 0 | 13 | 94 | –
22.5 ± 0.1 | 0.5 ± 0.03 | – | 107 to 109 | – | CN1CCN(c2nc(N)c3nc(-c4ccccc4)c(-c4ccccc4)nc3n2)CC1 [Compound 5c] | 10 | 6 | 100 | –
– | 0.73 ± 0.2 | 5 ± 0.1 | – | – | CN1CCN(c2nc(N3CCN(C)CC3)c3nccnc3n2)CC1 [Compound 9] | 8 | 14 | 96 | –
40 ± 0.2 | 21 ± 0.9 | – | – | – | COc1ccccc1CNc1nc(N2CCN(C)CC2)nc2nccnc12 [Compound 18b] | 13 | 20 | 90 | –
22.5 ± 0.2 | 10 ± 0.1 | – | 127 to 128 | – | CN1CCN(c2nc(NCCc3ccccc3)c3nccnc3n2)CC1 [Compound 18c] | 11 | 18 | 97 | –
24 ± 0.3 | 0.33 ± 0.03 | – | 174 to 175 | – | CN1CCN(c2nc(NCc3ccco3)c3nccnc3n2)CC1 [Compound 18e] | 10 | 17 | 94 | –
– | 0.1 ± 0.01 | 88.5 ± 1.2 | 89 to 90 | – | Cc1nc2nc(N3CCN(C)CC3)nc(NCc3cccs3)c2nc1C [Compound 18g] | 12 | 12 | 100 | –
– | 0.32 ± 0.02 | 74 ± 3.5 | – | ~0.3 | CN1CCN(c2nc(NCc3cccs3)c3nonc3n2)CC1 [Compound 23] | 16 | 18 | 94 | –
